Assay results: PubChem BioAssay (NCI)
Where “and” joins values, the source holds several entries; their conditions need not be identical. Equal entries are not always repeated.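 Method: 48-hour compound exposure of cells in 96-well plates, five concentrations, linear interpolation of endpoints. GI50 marks 50% less growth. TGI marks complete inhibition of growth.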

Key:
Assay in all cases: inhibition of tumour cell growth, NCI panel, 48 h
NCI/ADR-RES ovarian = tested on: NCI/ADR-RES ovarian
MCF7 breast = tested on: MCF7 breast
T-47D breast = tested on: T-47D breast
PC-3 prostate = tested on: PC-3 prostate
MDA-MB-435 = tested on: MDA-MB-435
KM20L2 colon = tested on: KM20L2 colon
M19-MEL melanoma = tested on: M19-MEL melanoma
LXFL 529 NSCLC = tested on: LXFL 529 NSCLC
DLD-1 colon = tested on: DLD-1 colon
SNB-78 CNS = tested on: SNB-78 CNS

Structure (SMILES)	GI50 (NCI/ADR-RES ovarian)	TGI (NCI/ADR-RES ovarian) [µM]	GI50 (MCF7 breast)	TGI (MCF7 breast)	GI50 (T-47D breast)	TGI (T-47D breast)	GI50 (PC-3 prostate)	TGI (PC-3 prostate) [µM]	GI50 (MDA-MB-435)	TGI (MDA-MB-435) [µM]	GI50 (KM20L2 colon) [µM]	TGI (KM20L2 colon) [µM]	GI50 (M19-MEL melanoma) [µM]	TGI (M19-MEL melanoma) [µM]	GI50 (LXFL 529 NSCLC) [µM]	TGI (LXFL 529 NSCLC) [µM]	GI50 (DLD-1 colon) [µM]	TGI (DLD-1 colon) [µM]	GI50 (SNB-78 CNS) [µM]	TGI (SNB-78 CNS) [µM]
O=C(N[C@@H]1CCCc2ccccc21)[C@H](CCC(=O)N1CCN(C2CCCCC2)CC1)N1C(=O)[C@@H](N2C(=O)OC[C@@H]2c2ccccc2)[C@H]1/C=C/c1ccccc1	2.78 µM	10.6	2.18 µM	13.4 µM	2.98 µM	14.6 µM	2.32 µM	8.35	1.35 µM	2.72										
O=C1c2ccccc2-c2cc3ccccc3c(=O)n21		> 100		> 100 µM		> 100 µM		> 100		> 100										
CC(=O)[CH-]C(=O)c1ccccc1.CC(=O)[CH-]C(=O)c1ccccc1.[O]=[U+2]=[O]											37.1	> 100	28.9	> 100	32.7	> 100	29.7	> 100		
CC(C)OP(=O)(CP(=O)(OC(C)C)OC(C)C)OC(C)C.[CH3][Sn]([Br])([Br])[Br]											> 100	> 100	> 100	> 100			> 100	> 100	> 100	> 100
COc1ccccc1C(=O)c1cnc(NC2CCN(S(C)(=O)=O)CC2)nc1N	> 25 µM	> 25	1.19 µM	> 25 µM	8.8 µM	> 25 µM	3.48 µM	> 25	4.83 µM	> 25										
COc1c(O)c(OC)c(C(=O)/C=C/c2ccccc2)c(O)c1OC		42.6		> 100 µM		79.7 µM		> 100		66.2										
O=C(/C=C/N1CCN(c2cccc(C(F)(F)F)c2)CC1)c1ccc(Cl)cc1Cl	21.7 µM	50.8	24.7 µM	60.7 µM	82.8 µM	> 100 µM	31.7 µM	> 100	25.6 µM	44.6										
Cn1c(=O)n(-c2ccc(C(C)(C)C#N)cc2)c2c3cc(-c4cnc5ccccc5c4)ccc3ncc21	0.0212 µM and 0.00849 µM and 0.0197 µM	> 100	< 0.01 µM and 0.00562 µM	12.2 µM and > 5.84 µM and > 100 µM	< 0.01 µM and 0.0141 µM	0.0488 µM and 0.0817 µM	< 0.01 µM and 0.0063 µM	> 100	< 0.01 µM and 0.00572 µM	0.0687										
O=C1OC(c2ccc(O)cc2)(c2ccc(O)cc2)c2cccc3cccc1c23	21.9 µM	68.7	1.98 µM	25.9 µM	0.118 µM	12 µM	11.5 µM	29	9.04 µM	22.4										
CCCC/C(=N\N=C(N)N)c1ccc(F)cc1	2.38 µM	8.29	0.758 µM	11.9 µM	2.61 µM	15.6 µM	2.85 µM	14.3	0.381 µM	2.22										
COc1ccc2c(c1O)[C@@]13C=C(O)C(=O)C=C1[C@@H](C2)N(C)CC3		> 100		> 100 µM		> 100 µM		> 100		> 100										
COc1cc[nH]c1/C=C1\C(=O)Nc2ccc(F)c(C#CC3(O)CCOCC3)c21	0.885 µM	8.42	0.758 µM	4.68 µM	1.1 µM	16 µM	0.669 µM	6.52	0.57 µM	4.05										
COC(=O)C12CC(C3CC31)C1CC12 (stereo not drawn)												> 100		> 100		> 100		> 100		
COc1cc(C2C3=C(COC3=O)N(CCO)c3cc4c(cc32)CCC4)cc(OC)c1O (stereo not drawn)	2.45 µM	> 21	0.107 µM	> 21.4 µM	0.141 µM	> 32.5 µM	0.203 µM	> 32.5	0.0646 µM	0.191										
COc1ccc2nc3ccc(OC)cc3c(SCCCN)c2c1	13.1 µM	37.1			3.08 µM	14.2 µM	1.71 µM	4.68	6.83 µM	27.6										
O=c1[nH]c(=O)n(C2CC(O)C(CO)O2)cc1C#Cc1ccc(C(F)(F)F)cc1 (stereo not drawn)												> 100				> 100		> 100		
CO[C@H]1C=C[C@]23c4cc5c(cc4CN(CC2O)[C@@H]3C1)OCO5 (stereo partly drawn)		58.8				18.2 µM		18.6		41.9										
N#Cc1c2c(c(N=[N+]=[N-])n3c1nc1ccccc13)CCCC2												4.6		6.1				2.94		11.5
CC(C)OP(=O)(OC(C)C)C(N(C)C)P(=O)(OC(C)C)OC(C)C.[Cl][Sn]([Cl])([Cl])[c]1ccccc1											2.32	15.8	2.61	6.79			2.89	> 100	8.01	> 100
COC(=O)c1cc(Nc2ccc(O)c3c2C(=O)c2c([N+](=O)[O-])ccc(O)c2C3=O)cc(C(=O)OC)c1	26.8 µM	> 100	4.3 µM	> 100 µM	4.78 µM	> 100 µM	13.5 µM	> 100												
COc1ccc(C[C@H]2C[C@@H](O)[C@@H](C)C/C=C/Cc3cccc(O)c3C(=O)O2)cn1	19.1 µM	48.8	19.5 µM	66.6 µM	33.1 µM	> 100 µM			19.9 µM	46.6										
CCOP(=O)(OCC)/C(C#N)=C\c1cccc2ccccc12		> 100		> 100 µM		> 100 µM		> 100		> 100		> 100		> 100						> 100
CC1(CC(=O)O)OC2CCCCCC2O1 (stereo not drawn) (tested in a mixture with another compound)		> 100		> 100 µM		> 100 µM		> 100		> 100										
Clc1ccc2c(Cl)ncnc2c1												> 100		> 100				> 100		
C/C(=C(/c1ccc(O)cc1)c1ccc(OCCN2CCCC2)cc1)c1ccccc1	4.17 µM	18.3		2.72 µM	0.716 µM	7.93 µM	4.28 µM	14.7	1.88 µM	4.4										
